Key:
human cathepsin K = biological target: T1, human cathepsin K (Homo sapiens, UniProt P43235); details: in vitro; cited from earlier work
T1 sequence (P43235 115-329): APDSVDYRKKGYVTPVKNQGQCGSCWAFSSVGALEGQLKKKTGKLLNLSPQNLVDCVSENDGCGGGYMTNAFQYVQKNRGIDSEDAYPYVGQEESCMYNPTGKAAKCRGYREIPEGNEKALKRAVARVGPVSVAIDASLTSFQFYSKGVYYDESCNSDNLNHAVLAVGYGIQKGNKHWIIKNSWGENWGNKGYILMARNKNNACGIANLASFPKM

osteoclasts in bone = test: microPET imaging of radioligand uptake into bone in normal rats, with blocking studies; type: in vivo; details: rat
Text: Studies were done using imaging with Concorde Microsystems R4 and P4 PET scanners. Rats were anesthetized with isoflurane and maintained on 1% isoflurane throughout the imaging period. The animals were placed on their dorsal side in the scanner, and body temperature was maintained using a heating pad. A catheter was inserted into the tail vein for administration of radioactive solutions. Following a measured transmission scan, solutions of radioligands ([^11C]1 or ([^11C]2, 37-185 MBq in 0.5-1 mL volumes) were injected via the catheter, followed by a 1 ml flush of saline. For the blocking study, a 2 mg/kg dose of unlabeled compound 2 was administered 10 minutes prior to the injection of the radiolabeled [^11C]2. Emission data was collected for 60 minutes (12×5 min fames). The emission data was corrected for decay, dead time and random coincidences, then reconstructed using iterative ordered subset expectation maximization-maximum a posteriori (OSEM-MAP) yielding a reconstructed image resolution of approximately 1.4 mm. Volumetric regions of interest (ROIs) were defined using hand-drawn circular ROIs placed on the summed images, and the time-activity curves determined for each ROI (ASI Pro VM software: Siemens Medical Systems, Malvern, Pa.).

[1] = whole body biodistribution of radioactivity after intravenous injection in rats; type: in vivo, rat; details: female rats, i.v.; for Tissue biodistribution, Bone, avg: femur in its entirety
Experimental: The whole body biodistribution of radioactivity after intravenous injection of [^11C]1 was determined in rats. Animals (N =6, female CD rats) were lightly anesthetized (isoflurane) and injected via the tail vein with 1.85-4.44 MBq of radioligand formulated in 5% ethanol/saline. At selected times (5 and 40 min), groups (N=3) of animals were anesthetized, euthanized (decapitation) and samples of tissues removed. Tissue samples were weighed, counted for carbon-11, and the data calculated as % injected dose/g.

SMILES: COc1ccc(CCNC(=O)c2cnc(C#N)nc2NC2CCCCC2)cc1 [[^11C]1, 2-cyano-4-(cyclohexylamino)-N-(4-[^11C]methoxyphenethyl)-pyrimidine-5-carboxamide]
- IC50 (human cathepsin K): 22.2 pM

SMILES: [11CH3]Oc1ccc(CCNC(=O)c2cnc(C#N)nc2NC2CCCCC2)cc1 [[^11C]1, 2-cyano-4-(cyclohexylamino)-N-(4-[^11C]methoxyphenethyl)-pyrimidine-5-carboxamide]
- uptake and retention into target bone regions with low specific activity dose (osteoclasts in bone; 10.8 GBq/μmol, co-injection of 14 micrograms/kg of unlabeled 1): nearly full block
- uptake and retention after pretreatment with unlabeled CCX (osteoclasts in bone; microPET): reduced
- uptake in the growth plates (proximal humerus, distal ulnar, carpal, distal femur, proximal tibia, caudal vertebrae) (osteoclasts in bone; microPET): high uptake
- Tissue biodistribution, Adrenal, avg ([1]; 5 min): 3.57 % injected dose/g
- Tissue biodistribution, Blood, avg ([1]; 5 min): 0.24 % injected dose/g
- Tissue biodistribution, Brain, avg ([1]; 5 min): 0.43 % injected dose/g
- Tissue biodistribution, Heart, avg ([1]; 5 min): 1.23 % injected dose/g
- Tissue biodistribution, Kidney, avg ([1]; 5 min): 2.03 % injected dose/g
- Tissue biodistribution, Liver, avg ([1]; 5 min): 3.02 % injected dose/g
- Tissue biodistribution, Lung, avg ([1]; 5 min): 0.68 % injected dose/g
- Tissue biodistribution, Muscle, avg ([1]; 5 min): 0.11 % injected dose/g
- Tissue biodistribution, Pancreas, avg ([1]; 5 min): 1.68 % injected dose/g
- Tissue biodistribution, Spleen, avg ([1]; 5 min): 1.03 % injected dose/g
- Tissue biodistribution, Bone, avg ([1]; 5 min): 0.26 % injected dose/g
- Tissue biodistribution, Adrenal, avg ([1]; 40 min): 0.51 % injected dose/g
- Tissue biodistribution, Blood, avg ([1]; 40 min): 0.11 % injected dose/g
- Tissue biodistribution, Brain, avg ([1]; 40 min): 0.11 % injected dose/g
- Tissue biodistribution, Heart, avg ([1]; 40 min): 0.19 % injected dose/g
- Tissue biodistribution, Kidney, avg ([1]; 40 min): 0.41 % injected dose/g
- Tissue biodistribution, Liver, avg ([1]; 40 min): 0.68 % injected dose/g
- Tissue biodistribution, Lung, avg ([1]; 40 min): 0.16 % injected dose/g
- Tissue biodistribution, Muscle, avg ([1]; 40 min): 0.11 % injected dose/g
- Tissue biodistribution, Pancreas, avg ([1]; 40 min): 0.56 % injected dose/g
- Tissue biodistribution, Spleen, avg ([1]; 40 min): 0.22 % injected dose/g
- Tissue biodistribution, Bone, avg ([1]; 40 min): 0.14 % injected dose/g

SMILES: CC(C)(C)CNc1nc(C#N)ncc1C(=O)NCCc1ccc(O[11CH3])cc1 [[^11C]2, 2-cyano-N-(4-[^11C]methoxyphenethyl)-4-(neopentylamino)pyrimidine-5-carboxamide]
- bone uptake of radioactivity after blocking dose of unlabeled ligand 2 (osteoclasts in bone; 2 mg/kg unlabeled 2, ten minutes prior to injection): reduction of bone uptake of radioactivity to essentially levels equivalent to background in non-target tissues

SMILES: COc1ccc(CCNC(=O)c2cnc(C#N)nc2NCC(C)(C)C)cc1 [[^11C]2, 2-cyano-N-(4-[^11C]methoxyphenethyl)-4-(neopentylamino)pyrimidine-5-carboxamide]
- IC50 (human cathepsin K): 3 pM

Reference: patent US20140336503A1, “RA[…] […] RELATED METHODS THEREOF” (The Regents of the University of Michigan, priority 2013, published 2014)
